Among the data in patent US20250136619A1, “HETEROBIFUNCTIONAL COMPOUNDS AND THEIR USE IN TREATING DISEASE” (HALDA THERAPEUTICS OPCO, INC., priority 2021, published 2025) are Kd and GI50 values, retold here.

Where two headings read alike, the source gives them in different places.

Assay [1] addresses BTK (Homo sapiens (Human), UniProt Q06187). The assay is described as follows: KdELECT assay for binding affinity to BTK. The protocol: Compounds were tested using a KdELECT assay. Kinase-tagged T7 phage strains were prepared in an E. coli host derived from the BL21 strain. E. coli were grown to log-phase and infected with T7 phage and incubated with shaking at 32° C. until lysis. The lysates were centrifuged and filtered to remove cell debris. The remaining kinases were produced in HEK-293 cells and subsequently tagged with DNA for qPCR detection. Streptavidin-coated magnetic beads were treated with biotinylated small molecule ligands for 30 minutes at room temperature to generate affinity resins for kinase assays. The liganded beads were blocked with excess biotin and washed with blocking buffer (SeaBlock (Pierce), 1% BSA, 0.05% Tween 20, 1 mM DTT) to remove unbound ligand and to reduce non-specific binding. Binding reactions were assembled by combining kinases, liganded affinity beads, and test compounds in 1× binding buffer (20% SeaBlock, 0.17×PBS, 0.05% Tween 20, 6 mM DTT). Test compounds were prepared as 111X stocks in 100% DMSO. Kd values were determined using an 11-point 3-fold compound dilution series with three DMSO control points. All compounds for Kd measurements are distributed by acoustic transfer (non-contact dispensing) in 100% DMSO. The compounds were then diluted directly into the assays such that the final concentration of DMSO was 0.9%. All reactions performed in polypropylene 384-well plate. Each was a final volume of 0.02 mL. The assay plates were incubated at room temperature with shaking for 1 hour and the affinity beads were washed with wash buffer (1×PBS, 0.05% Tween 20). The beads were then re-suspended in elution buffer (1×PBS, 0.05% Tween 20, 0.5 μM nonbiotinylated affinity ligand) and incubated at room temperature with shaking for 30 minutes. The kinase concentration in the eluates was measured by qPCR.

In assay [2] the test system is HEK293 cells. In words: Cellular growth inhibition assay (CellTiter-Glo), HEK293 cells. It counts as cell-based. The following applies: HEK293 cells, three days of compound treatment, CellTiter-Glo 2.0, read-out: CTG HEK293 GI50. How it is done: (§1) HEK293 and HeLa cells were cultured in DMEM medium supplemented with 10% fetal bovine serum and 1% Penn/Strep. Cells were seeded in white 384-well plates at 500 cells/well in […] complete medium. Following seeding, plates were spun at 300×g for three minutes and cultured at 37° C. with 5% CO2 in a humidified tissue culture incubator.
(§2) After 24 hours, compounds were titrated in 100% DMSO and diluted in complete cell culture medium. […] of compound/media mixture was added to cells to bring total volume in well to […]. DMSO alone was used as a negative control. Plates were then spun at 300×g for three minutes and stored at 37° C. with 5% CO2 for three days.
(§3) On Day 0 and Day 3 of compound treatment, cell viability was quantified with CellTiter-Glo 2.0 reagent (Promega). After equilibrating microplates at room temperature for 30 minutes, 25 μL CellTiter-Glo 2.0 reagent was dispensed into each well to bring total volume to […]. Plates were mixed on shaker for 2 minutes at 500 rpm, followed by a 10-minute incubation at room temperature. Following a quick spin, luminescence readings were measured with an En Vision Plate Reader. Data was normalized to DMSO treated Day 0 and Day 3 readings. A four-parameter non-linear regression curve fit was applied to dose-response data in GraphPad Prism data analysis software to determine the half maximal growth inhibitory concentration (GI50) for each compound.
In general terms: In ATP-based viability assays light output follows the ATP content of the culture.

The test system of assay [3] is HeLa cells. The assay is described as follows: Cellular growth inhibition assay (CellTiter-Glo), HeLa cells. The format is cell-based. The note with it: HeLa cells, three days of compound treatment, CellTiter-Glo 2.0, read-out: CTG HELA GI50. The protocol:
as §1, §2, §3

Chain of BTK (Q06187 whole entry): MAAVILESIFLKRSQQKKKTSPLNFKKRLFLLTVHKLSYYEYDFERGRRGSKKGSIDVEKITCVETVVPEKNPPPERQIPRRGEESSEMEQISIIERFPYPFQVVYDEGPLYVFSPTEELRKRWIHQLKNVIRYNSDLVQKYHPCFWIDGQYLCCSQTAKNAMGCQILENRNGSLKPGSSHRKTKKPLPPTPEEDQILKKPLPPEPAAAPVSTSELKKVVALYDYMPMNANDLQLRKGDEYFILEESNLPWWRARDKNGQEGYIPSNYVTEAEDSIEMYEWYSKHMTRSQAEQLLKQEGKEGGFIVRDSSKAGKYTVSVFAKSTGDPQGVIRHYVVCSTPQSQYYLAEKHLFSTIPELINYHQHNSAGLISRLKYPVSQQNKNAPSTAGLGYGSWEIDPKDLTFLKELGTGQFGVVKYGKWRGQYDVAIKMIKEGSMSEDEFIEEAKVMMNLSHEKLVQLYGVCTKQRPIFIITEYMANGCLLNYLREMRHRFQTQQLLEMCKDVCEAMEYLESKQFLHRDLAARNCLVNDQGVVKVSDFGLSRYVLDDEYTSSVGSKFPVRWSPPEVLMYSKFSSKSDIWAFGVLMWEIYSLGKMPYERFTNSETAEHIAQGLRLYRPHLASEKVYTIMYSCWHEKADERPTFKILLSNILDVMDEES

As for `NC(=O)c1c(F)cccc1Nc1nc(Nc2ccc(S(=O)(=O)NCCCCCCCC/C=C/C(=O)N3CCC[C@@H](n4nc(-c5ccc(Oc6ccccc6)cc5)c5c(N)ncnc54)C3)cc2)ncc1Br` [Compound I-17], the Kd (commonly the equilibrium constant for the complex coming apart) in assay [1] lay within 0.5 to 2.5 µM. Still for that read-out and setting: the result for `CC[C@@H]1C(=O)N(C)c2cnc(Nc3ccc(C(=O)NCCCCCCCCOC/C=C/C(=O)N4CCC[C@@H](n5nc(-c6ccc(Oc7ccccc7)cc6)c6c(N)ncnc65)C4)cc3OC)nc2N1C1CCCC1` [Compound I-36, N-[8-[(E)-4-[(3R)-3-[4-amino-3-(4-phenoxyphenyl)pyrazolo[3,4-d]pyrimidin-1-yl]-1-piperidyl]-4-oxo-but-2-enoxy]octyl]-4-[[(7R)-8-cyclopentyl-7-ethyl-5-methyl-6-oxo-7H-pteridin-2-yl]amino]-3-methoxy-benzamide] reads 0.05 to 0.5 µM. In the case of `CCc1cnn2c(NCc3ccc(OCCCCCOc4nc(C#N)ccc4N[C@@H](C)c4cc5cc(Cl)ccc5[nH]c4=O)nc3)cc(N3CCCC[C@H]3CCO)nc12` [Compound I-90, 5-[[(1S)-1-(6-chloro-2-oxo-1H-quinolin-3-yl)ethyl]amino]-6-[5-[5-[[[3-ethyl-5-[(2S)-2-(2-hydroxyethyl)-1-piperidyl]pyrazolo[1,5-a]pyrimidin-7-yl]aminomethyl]-2-pyridyl]oxy]pentoxy]pyridine-2-carbonitrile], the GI50 in assay [2] and in assay [3] was below 0.5 µM throughout. For `CCc1cnn2c(NCc3ccc(=O)n(CCOCCOCCCc4cc(-c5cnc([C@H](C)Nc6nccc(N7C(=O)OC[C@@H]7[C@H](C)F)n6)cc5C)cc(C(F)(F)F)n4)c3)cc(N3CCCC[C@H]3CCO)nc12` [Compound I-100, (4R)-3-[2-[[(1S)-1-[5-[2-[3-[2-[2-[5-[[3-ethyl-5-[(2S)-2-(2-hydroxyethyl)-1-piperidyl]pyrazolo[1,5-a]pyrimidin-7-yl]aminomethyl]-2-oxo-1-pyridyl]ethoxy]ethoxy]propyl]-6-(trifluoromethyl)-4-pyridyl]-4-methyl-2-pyridyl]ethyl]amino]pyrimidin-4-yl]-4-[(1S)-1-fluoroethyl]oxazolidin-2-one], the GI50 (usually the concentration giving 50% growth inhibition) was below 0.5 µM in assay [2] (Homo sapiens, 72 h) and below 0.5 µM in assay [3] (Homo sapiens, 72 h). For the molecule `CCc1cnn2c(NCc3ccc(OCCCCCn4c(C#N)ccc(N[C@@H](C)c5cc6cc(Cl)ccc6[nH]c5=O)c4=O)nc3)cc(N3CCCC[C@H]3CCO)nc12` [Compound I-89], the GI50 in assay [2] is 1.5 to 5 µM; in assay [3] it was below 0.5 µM. In the case of `CN(CCOCCOCCNS(=O)(=O)c1cc(F)cc(N(C(=O)[C@@H]2CCC(=O)N2c2cc(C#N)ccn2)C(C(=O)NC2CC(F)(F)C2)c2ccccc2Cl)c1)C(=O)N1N=C(c2cc(F)ccc2F)SC1(CCCN)c1ccccc1` (stereo partly drawn) [Compound I-114, 2-(3-aminopropyl)-N-[2-[2-[2-[[3-[[1-(2-chlorophenyl)-2-[(3,3-difluorocyclobutyl)amino]-2-oxo-ethyl]-[(2S)-1-(4-cyano-2-pyridyl)-5-oxo-pyrrolidine-2-carbonyl]amino]-5-fluoro-phenyl]sulfonylamino]ethoxy]ethoxy]ethyl]-5-(2,5-difluorophenyl)-N-methyl-2-phenyl-1,3,4-thiadiazole-3-carboxamide], the GI50 in assay [2] (Homo sapiens, 72 h) was above 5 µM; in assay [3] (Homo sapiens, 72 h), 1.5 to 5 µM. On the same counts, the results for `C=CC(=O)N1CCN([C@@H](CC2CC2)c2ccc([C@H](C)Nc3ncc4c(n3)N(CCOCCOCCOCCOCCOc3ccc(CNc5cc(N6CCCC[C@H]6CCO)nc6c(CC)cnn56)cn3)C(=O)OC4)cc2)CC1` [Compound I-57] are below 0.5 µM and below 0.5 µM. On the same counts, the results for `CN(CCNS(=O)(=O)c1cc(F)cc(N(C(=O)[C@@H]2CCC(=O)N2c2cc(C#N)ccn2)[C@H](C(=O)NC2CC(F)(F)C2)c2ccccc2Cl)c1)C(=O)N1N=C(c2cc(F)ccc2F)SC1(CCCN)c1ccccc1` (stereo partly drawn) [Compound I-112, 2-(3-aminopropyl)-N-[2-[[3-[[(1S)-1-(2-chlorophenyl)-2-[(3,3-difluorocyclobutyl)amino]-2-oxo-ethyl]-[(2S)-1-(4-cyano-2-pyridyl)-5-oxo-pyrrolidine-2-carbonyl]amino]-5-fluoro-phenyl]sulfonylamino]ethyl]-5-(2,5-difluorophenyl)-N-methyl-2-phenyl-1,3,4-thiadiazole-3-carboxamide] are 1.5 to 5 µM and 0.5 to 1.5 µM. In the case of `CCc1cnn2c(NCc3ccc(OCCOCCOCCOCCOCCOCCOCCOC/C=C/C(=O)N4CCC[C@@H](n5nc(-c6ccc(Oc7ccccc7)cc6)c6c(N)ncnc65)C4)nc3)cc(N3CCCC[C@H]3CCO)nc12` [Compound I-45], the GI50 in assay [2] (Homo sapiens, 72 h) is 0.5 to 1.5 µM; in assay [3] (Homo sapiens, 72 h) it was 0.5 to 1.5 µM. With `CCc1cnn2c(NCc3ccc(OCCOCCOCCOCCOCCNS(=O)(=O)c4cc(F)cc(N(C(=O)[C@@H]5CCC(=O)N5c5cc(C#N)ccn5)C(C(=O)NC5CC(F)(F)C5)c5ccccc5Cl)c4)nc3)cc(N3CCCC[C@H]3CCO)nc12` (some centres unmarked) [Compound I-94], the GI50 in assay [2] fell in the range of 1.5 to 5 µM; in assay [3], 0.5 to 1.5 µM. In the case of `C[C@@H](Nc1ccc(C#N)n(C)c1=O)c1cc2cc(Cl)c(C3CC(OCCOCCOCCOCCOCCN(C)C(=O)N4N=C(c5cc(F)ccc5F)SC4(CCCN)c4ccccc4)C3)cc2[nH]c1=O` (stereo partly drawn) [Compound I-111, 2-(3-aminopropyl)-N-[2-[2-[2-[2-[2-[3-[6-chloro-3-[(1R)-1-[(6-cyano-1-methyl-2-oxo-3-pyridyl)amino]ethyl]-2-oxo-1H-quinolin-7-yl]cyclobutoxy]ethoxy]ethoxy]ethoxy]ethoxy]ethyl]-5-(2,5-difluorophenyl)-N-methyl-2-phenyl-1,3,4-thiadiazole-3-carboxamide], the GI50 in assay [2] (Homo sapiens, 72 h) is 1.5 to 5 µM; in assay [3] (Homo sapiens, 72 h), 0.5 to 1.5 µM. On the same counts, the results for `CCS(=O)(=O)Nc1ccc(Oc2cccc(OCCOCCOCC(=O)N3CC(=O)N(c4cc(C#N)ccn4)[C@H](C(=O)N(c4cc(F)cc(F)c4)[C@H](C(=O)NC4CC(F)(F)C4)c4ccccc4Cl)C3)c2)c(-c2cn(C)c(=O)c3[nH]ccc23)c1` [Compound I-107, (2S)—N-[(1S)-1-(2-chlorophenyl)-2-[(3,3-difluorocyclobutyl)amino]-2-oxo-ethyl]-1-(4-cyano-2-pyridyl)-N-(3,5-difluorophenyl)-4-[2-[2-[2-[3-[4-(ethylsulfonylamino)-2-(6-methyl-7-oxo-1H-pyrrolo[2,3-c]pyridin-4-yl)phenoxy]phenoxy]ethoxy]ethoxy]acetyl]-6-oxo-piperazine-2-carboxamide] are above 5 µM and 0.5 to 1.5 µM.

On to `C=CC(=O)N1CCN([C@@H](CC2CC2)c2ccc([C@H](C)Nc3ncc4c(n3)N(CCOCCOCCOCCOCCOCCOCCON(C)C(=O)N3N=C(c5cc(F)ccc5F)SC3(CCCN)c3ccccc3)C(=O)OC4)cc2)CC1` (some centres unmarked) [Compound I-60], for which the GI50 in assay [2] (Homo sapiens, 72 h) lay in the range of 1.5 to 5 µM; in assay [3] (Homo sapiens, 72 h) it was 0.5 to 1.5 µM. For the molecule `CN(C/C=C/C(=O)N1CCC[C@@H](n2nc(-c3ccc(Oc4ccccc4)cc3)c3c(N)ncnc32)C1)CCOCCOCCOCCOCCOCCOCCNS(=O)(=O)c1ccc(Nc2ncc(Br)c(Nc3cccc(F)c3C(N)=O)n2)cc1` [Compound I-65, 2-[[2-[4-[2-[2-[2-[2-[2-[2-[2-[[(E)-4-[(3R)-3-[4-amino-3-(4-phenoxyphenyl)pyrazolo[3,4-d]pyrimidin-1-yl]-1-piperidyl]-4-oxo-but-2-enyl]-methyl-amino]ethoxy]ethoxy]ethoxy]ethoxy]ethoxy]ethoxy]ethylsulfamoyl]anilino]-5-bromo-pyrimidin-4-yl]amino]-6-fluoro-benzamide], the GI50 in assay [2] (Homo sapiens, 72 h) was above 5 µM; in assay [3] (Homo sapiens, 72 h), 1.5 to 5 µM.
